Peptide text beside a SMILES is read from it.
Molecular target: Glucagon receptor (Homo sapiens, UniProt P47871)
Assay: Displacement of 125I-glucagon from human GCGR expressed in HEK293 cells membranes incubated for 6 hrs by liquid scintillation counting method

Chain of Glucagon receptor (P47871 whole entry): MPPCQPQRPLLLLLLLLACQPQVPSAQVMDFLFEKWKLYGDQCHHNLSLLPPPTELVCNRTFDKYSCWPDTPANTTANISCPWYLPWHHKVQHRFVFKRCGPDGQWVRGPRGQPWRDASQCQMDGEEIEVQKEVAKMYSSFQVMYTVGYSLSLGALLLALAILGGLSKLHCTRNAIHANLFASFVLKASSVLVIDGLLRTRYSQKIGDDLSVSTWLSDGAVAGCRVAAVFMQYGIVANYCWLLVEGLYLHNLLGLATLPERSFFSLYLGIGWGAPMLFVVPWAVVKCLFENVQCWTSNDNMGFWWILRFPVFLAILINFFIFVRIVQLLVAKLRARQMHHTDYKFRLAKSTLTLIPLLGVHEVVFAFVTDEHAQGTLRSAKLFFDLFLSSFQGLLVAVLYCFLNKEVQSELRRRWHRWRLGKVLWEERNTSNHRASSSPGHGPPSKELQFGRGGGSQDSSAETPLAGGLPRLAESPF

CSCC[C@H](NC(=O)[C@H](CC(C)C)NC(=O)[C@H](Cc1c[nH]c2ccccc12)NC(=O)[C@H](CCC(N)=O)NC(=O)[C@@H](NC(=O)[C@H](Cc1ccccc1)NC(=O)[C@H](CC(=O)O)NC(=O)[C@H](CCC(N)=O)NC(=O)[C@H](C)NC(=O)[C@H](CCCNC(=N)N)NC(=O)[C@H](CCCNC(=N)N)NC(=O)[C@H](CO)NC(=O)[C@H](CC(=O)O)NC(=O)[C@H](CC(C)C)NC(=O)[C@H](Cc1ccc(O)cc1)NC(=O)[C@H](CCCCN)NC(=O)[C@H](CO)NC(=O)[C@H](Cc1ccc(O)cc1)NC(=O)[C@H](CSCC(=O)O)NC(=O)[C@H](CO)NC(=O)[C@@H](NC(=O)[C@H](Cc1ccccc1)NC(=O)[C@@H](NC(=O)CNC(=O)[C@H](CCC(N)=O)NC(=O)[C@@H](N)CO)[C@@H](C)O)[C@@H](C)O)C(C)C)C(=O)N[C@@H](CC(N)=O)C(=O)N[C@H](C(N)=O)[C@@H](C)O
IC50: 0.013 µM

CSCC[C@H](NC(=O)[C@H](CC(C)C)NC(=O)[C@H](Cc1c[nH]c2ccccc12)NC(=O)[C@H](CCC(N)=O)NC(=O)[C@@H](NC(=O)[C@H](Cc1ccccc1)NC(=O)[C@H](CC(=O)O)NC(=O)[C@H](CCC(N)=O)NC(=O)[C@H](C)NC(=O)[C@H](CCCNC(=N)N)NC(=O)[C@H](CCCNC(=N)N)NC(=O)[C@H](CO)NC(=O)[C@H](CC(=O)O)NC(=O)[C@H](CC(C)C)NC(=O)[C@H](Cc1ccc(O)cc1)NC(=O)[C@H](CCCCN)NC(=O)[C@H](CO)NC(=O)[C@H](Cc1ccc(O)cc1)NC(=O)[C@H](CCC(=O)O)NC(=O)[C@H](CO)NC(=O)[C@@H](NC(=O)[C@@H](O)Cc1ccccc1)[C@@H](C)O)C(C)C)C(=O)N[C@@H](CC(N)=O)C(=O)N[C@H](C(N)=O)[C@@H](C)O (HELM PEPTIDE1{[O=C([C@@H](O)Cc1ccccc1)[*:2]].T.S.E.Y.S.K.Y.L.D.S.R.R.A.Q.D.F.V.Q.W.L.M.N.T.[am]}$$$$V2.0)
IC50: 0.012 µM
